Test results as given in PMC12645437, “Orthogonal IMiD-Degron Pairs Induce Selective Protein Degradation in Cells” (ACS Chemical Biology, 2025).
Like-named read-outs stand apart in the source and are kept apart here.

What was measured:
[1] = target: T1, Q147A mutant degron (ANQS) fused to EGFP (Homo sapiens, UniProt Q96SW2+Q9UKT9, Q147A); experiment: Ratiometric EGFP:mCherry flow cytometry degradation assay, 18 h; assay type: cell-based; conditions: Jurkat, read-out: DMax Q147A/%
T1 construct: pLVX-Sprout-IKZF3 130-189aa Q147A (ANQS); expressed in transfected cells
T1 sequence (Q9UKT9 130-189 Q147A): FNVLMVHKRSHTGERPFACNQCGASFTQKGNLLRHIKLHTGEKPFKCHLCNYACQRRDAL
T1 sequence (Q96SW2 whole entry, the tested form may be a part): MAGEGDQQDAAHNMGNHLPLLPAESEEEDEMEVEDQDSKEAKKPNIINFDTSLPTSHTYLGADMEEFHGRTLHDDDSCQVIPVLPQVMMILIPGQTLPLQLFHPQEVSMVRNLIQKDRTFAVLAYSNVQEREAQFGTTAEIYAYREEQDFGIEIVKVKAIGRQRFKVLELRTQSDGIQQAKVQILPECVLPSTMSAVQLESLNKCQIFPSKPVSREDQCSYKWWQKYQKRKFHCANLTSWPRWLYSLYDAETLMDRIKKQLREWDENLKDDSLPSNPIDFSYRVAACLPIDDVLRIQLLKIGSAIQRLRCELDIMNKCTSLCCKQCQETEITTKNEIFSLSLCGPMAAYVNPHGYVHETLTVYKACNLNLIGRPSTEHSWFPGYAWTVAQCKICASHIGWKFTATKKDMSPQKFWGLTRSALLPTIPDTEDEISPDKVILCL
T1 sequence (Q16531 whole entry partner, the tested form may be a part): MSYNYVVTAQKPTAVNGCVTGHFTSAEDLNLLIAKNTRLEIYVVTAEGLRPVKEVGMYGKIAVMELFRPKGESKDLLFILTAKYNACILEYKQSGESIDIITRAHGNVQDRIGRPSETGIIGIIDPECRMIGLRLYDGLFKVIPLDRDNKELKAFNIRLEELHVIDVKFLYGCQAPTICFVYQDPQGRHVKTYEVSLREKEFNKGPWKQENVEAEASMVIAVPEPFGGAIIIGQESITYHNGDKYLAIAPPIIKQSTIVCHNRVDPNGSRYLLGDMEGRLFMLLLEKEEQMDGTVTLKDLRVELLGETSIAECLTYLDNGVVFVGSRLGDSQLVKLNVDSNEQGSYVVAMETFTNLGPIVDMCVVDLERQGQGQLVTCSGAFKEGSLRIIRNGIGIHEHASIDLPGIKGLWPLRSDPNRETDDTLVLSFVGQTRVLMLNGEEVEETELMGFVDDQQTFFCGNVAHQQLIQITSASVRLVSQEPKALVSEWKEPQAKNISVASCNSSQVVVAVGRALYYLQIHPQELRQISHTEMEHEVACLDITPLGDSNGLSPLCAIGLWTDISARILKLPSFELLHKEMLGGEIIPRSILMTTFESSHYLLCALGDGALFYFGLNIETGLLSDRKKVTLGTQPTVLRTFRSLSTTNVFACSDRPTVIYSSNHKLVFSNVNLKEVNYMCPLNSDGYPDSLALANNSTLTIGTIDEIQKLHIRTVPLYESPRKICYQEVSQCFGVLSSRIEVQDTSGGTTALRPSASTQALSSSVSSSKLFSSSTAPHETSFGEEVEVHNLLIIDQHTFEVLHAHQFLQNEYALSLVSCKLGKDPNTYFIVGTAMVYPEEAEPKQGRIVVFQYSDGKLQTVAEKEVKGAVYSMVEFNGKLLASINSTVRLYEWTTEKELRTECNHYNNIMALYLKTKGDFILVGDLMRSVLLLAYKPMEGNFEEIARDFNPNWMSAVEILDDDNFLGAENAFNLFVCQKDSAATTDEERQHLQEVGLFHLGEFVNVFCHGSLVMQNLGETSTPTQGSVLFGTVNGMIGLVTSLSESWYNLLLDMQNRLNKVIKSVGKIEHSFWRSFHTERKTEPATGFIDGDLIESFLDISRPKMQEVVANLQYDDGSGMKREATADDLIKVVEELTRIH

Jurkat cells = experiment: TMTpro quantitative proteomics, 16 h; conditions: for Scaled value (to 150), replicate 01 / Scaled value (to 150), replicate 02 / Scaled value (to 150), replicate 03 / Log2(ratio) compound/UT / Ratio to untreated, replicate 01 / Ratio to untreated, replicate 02 / Ratio to untreated, replicate 03: Jurkat whole cell extracts; for Scaled value (to 150), replicate 01 / Scaled value (to 150), replicate 02 / Scaled value (to 150), replicate 03: TMTpro SPS-MS3; for Log2(ratio) compound/UT: Welch's t-test with FDR correction
[2] = protein AADAT isoform 2 (Q8N5Z0-2)

**Q.** Which Dmax [1] does the source give for `O=C1CCC(N2C(=O)c3cccc(O)c3C2=O)C(=O)N1` (centres unmarked) [Compound 4] here?
**A.** 46%

**Q.** How did the “Scaled value (to 150), replicate 01” value (Jurkat cells; protein A2M (P01023)) turn out when `Nc1cccc2c1CN(C1CCC(=O)NC1=O)C2=O` (centres unmarked) [lenalidomide] was run?
**A.** 10.2473

**Q.** And the “Scaled value (to 150), replicate 02” value (Jurkat cells; protein A2M (P01023))?
**A.** 8.044

**Q.** And the “Scaled value (to 150), replicate 03” value (Jurkat cells; protein A2M (P01023))?
**A.** 8.233

**Q.** What about the “Scaled value (to 150), replicate 01” value (Jurkat cells; protein AAAS (Q9NRG9)) of the same compound?
**A.** 9.75

**Q.** And the “Scaled value (to 150), replicate 02” value (Jurkat cells; protein AAAS (Q9NRG9))?
**A.** 10.198

**Q.** What about the “Scaled value (to 150), replicate 03” value (Jurkat cells; protein AAAS (Q9NRG9)) of the same compound?
**A.** 10.3119

**Q.** And the “Scaled value (to 150), replicate 01” value (Jurkat cells; protein AACS (Q86V21))?
**A.** 10.2128

**Q.** And the “Scaled value (to 150), replicate 02” value (Jurkat cells; protein AACS (Q86V21))?
**A.** 10.0368

**Q.** And the “Scaled value (to 150), replicate 03” value (Jurkat cells; protein AACS (Q86V21))?
**A.** 9.972

**Q.** What about the “Scaled value (to 150), replicate 01” value (Jurkat cells; [2]) of the same compound?
**A.** 9.894

**Q.** And the “Scaled value (to 150), replicate 02” value (Jurkat cells; [2])?
**A.** 10.004

**Q.** And the “Scaled value (to 150), replicate 03” value (Jurkat cells; [2])?
**A.** 10.2911

**Q.** And the “proteins significantly degraded (quantitative proteomics)” value (Jurkat cells; Jurkat, 1 μM, 16 h, Welch's t test)?
**A.** at least 6 proteins

**Q.** Which Dmax ([1]; 18 h, Fig 2B) does the source give for `O=C1CCC(N2C(=O)c3ccc(Cl)cc3C2=O)C(=O)N1` (centres unmarked) [Compound 11] here?
**A.** 37%

**Q.** Which Dmax ([1]; 18 h, Fig 2B) does the source give for `O=C1CCC(N2C(=O)c3cccc(OCc4cccnc4)c3C2=O)C(=O)N1` (centres unmarked) [Compound 31] here?
**A.** 82%

**Q.** `COc1cccc2c1C(=O)N(C1CCC(=O)NC1=O)C2=O` (centres unmarked) [Compound 6] was tested. Which Dmax ([1]; 18 h, Fig 2B) did it give?
**A.** 75%

**Q.** How did the Dmax ([1]; 18 h, Fig 2B) turn out when `O=C1CCC(N2C(=O)c3ccc(Br)cc3C2=O)C(=O)N1` (centres unmarked) [Compound 13] was run?
**A.** 56%

**Q.** With `Nc1ccc2c(c1)C(=O)N(C1CCC(=O)NC1=O)C2=O` (centres unmarked) [Compound 3] as the compound, how does the Dmax ([1]; 18 h, Fig 2B) read?
**A.** 90%

**Q.** With `O=C1CCC(N2C(=O)c3cccc(Cl)c3C2=O)C(=O)N1` (centres unmarked) [Compound 10] as the compound, how does the Dmax ([1]; 18 h, Fig 2B) read?
**A.** 88%

**Q.** For `Cc1ccccc1COc1cccc2c1C(=O)N(C1CCC(=O)NC1=O)C2=O` (centres unmarked) [Compound 32], which Dmax ([1]; 18 h, Fig 2B) is on record?
**A.** 65%

**Q.** For `COc1ccc2c(c1)C(=O)N(C1CCC(=O)NC1=O)C2=O` (centres unmarked) [Compound 7], which Dmax ([1]; 18 h, Fig 2B) is on record?
**A.** 82%

**Q.** How did the Dmax ([1]; 18 h, Fig 2B) turn out when `O=C1CCC(N2C(=O)c3cccnc3C2=O)C(=O)N1` (centres unmarked) [Compound 35] was run?
**A.** 60%

**Q.** For `O=C1CCC(N2C(=O)c3cccc(OC(c4ccccc4)c4ccccc4)c3C2=O)C(=O)N1` (centres unmarked) [Compound 34], which Dmax ([1]; 18 h, Fig 2B) is on record?
**A.** 90%

**Q.** With `O=C1CCC(N2C(=O)c3cccc(F)c3C2=O)C(=O)N1` (centres unmarked) [Compound 8] as the compound, how does the Dmax ([1]; 18 h, Fig 2B) read?
**A.** 57%

**Q.** `O=C1CCC(N2C(=O)c3cccc(NCc4ccccc4)c3C2=O)C(=O)N1` (centres unmarked) [Compound 26] was tested. Which Dmax ([1]; 18 h, Fig 2B) did it give?
**A.** 95%

**Q.** `O=C1CCC(N2C(=O)c3cccc(OCc4ccccc4)c3C2=O)C(=O)N1` (centres unmarked) [Compound 30] was tested. Which Dmax ([1]; 18 h, Fig 2B) did it give?
**A.** 85%

**Q.** `Cc1ccc2c(c1)C(=O)N(C1CCC(=O)NC1=O)C2=O` (centres unmarked) [Compound 17] was tested. Which Dmax ([1]; 18 h, Fig 2B) did it give?
**A.** 72%

**Q.** How did the Dmax ([1]; 18 h, Fig 2B) turn out when `O=C1CCC(N2C(=O)c3ccc(I)cc3C2=O)C(=O)N1` (centres unmarked) [Compound 15] was run?
**A.** 77%

**Q.** Which Dmax ([1]; 18 h, Fig 2B) does the source give for `O=C1CCC(N2C(=O)c3ccncc3C2=O)C(=O)N1` (centres unmarked) [Compound 36] here?
**A.** 91%

**Q.** Which Dmax ([1]; 18 h, Fig 2B) does the source give for `O=C1CCC(N2C(=O)c3cccc(Br)c3C2=O)C(=O)N1` (centres unmarked) [Compound 12] here?
**A.** 66%

**Q.** Which “Scaled value (to 150), replicate 01” value (Jurkat cells; protein A2M (P01023)) does the source give for `CN1CCN(c2ccc3c(c2)C(=O)N(C2CCC(=O)NC2=O)C3=O)CC1` (centres unmarked) [Cmpd23] here?
**A.** 8.458

**Q.** And the “Scaled value (to 150), replicate 02” value (Jurkat cells; protein A2M (P01023))?
**A.** 9.12

**Q.** What about the “Scaled value (to 150), replicate 03” value (Jurkat cells; protein A2M (P01023)) of the same compound?
**A.** 12.2998

**Q.** What about the “Scaled value (to 150), replicate 01” value (Jurkat cells; protein AAAS (Q9NRG9)) of the same compound?
**A.** 10.4661

**Q.** What about the “Scaled value (to 150), replicate 02” value (Jurkat cells; protein AAAS (Q9NRG9)) of the same compound?
**A.** 9.826

**Q.** What about the “Scaled value (to 150), replicate 03” value (Jurkat cells; protein AAAS (Q9NRG9)) of the same compound?
**A.** 10.0212

**Q.** What about the “Scaled value (to 150), replicate 01” value (Jurkat cells; protein AACS (Q86V21)) of the same compound?
**A.** 9.826

**Q.** And the “Scaled value (to 150), replicate 02” value (Jurkat cells; protein AACS (Q86V21))?
**A.** 9.749

**Q.** What about the “Scaled value (to 150), replicate 03” value (Jurkat cells; protein AACS (Q86V21)) of the same compound?
**A.** 9.8

**Q.** And the “Scaled value (to 150), replicate 01” value (Jurkat cells; [2])?
**A.** 10.0867

**Q.** And the “Scaled value (to 150), replicate 02” value (Jurkat cells; [2])?
**A.** 10.5129

**Q.** And the “Scaled value (to 150), replicate 03” value (Jurkat cells; [2])?
**A.** 9.582

**Q.** What about the “Log2(ratio) compound/UT” value (Jurkat cells; protein A2M (P01023)) of the same compound?
**A.** -0.3516

**Q.** And the “Ratio to untreated, replicate 01” value (Jurkat cells; protein A2M (P01023))?
**A.** 0.6228

**Q.** And the “Ratio to untreated, replicate 02” value (Jurkat cells; protein A2M (P01023))?
**A.** 0.6715

**Q.** What about the “Ratio to untreated, replicate 03” value (Jurkat cells; protein A2M (P01023)) of the same compound?
**A.** 0.9057

**Q.** And the “Log2(ratio) compound/UT” value (Jurkat cells; protein AAAS (Q9NRG9))?
**A.** -0.01283

**Q.** What about the “Ratio to untreated, replicate 01” value (Jurkat cells; protein AAAS (Q9NRG9)) of the same compound?
**A.** 1.017

**Q.** What about the “Ratio to untreated, replicate 02” value (Jurkat cells; protein AAAS (Q9NRG9)) of the same compound?
**A.** 0.9547

**Q.** And the “Ratio to untreated, replicate 03” value (Jurkat cells; protein AAAS (Q9NRG9))?
**A.** 0.9736

**Q.** What about the “Log2(ratio) compound/UT” value (Jurkat cells; protein AACS (Q86V21)) of the same compound?
**A.** -0.01545

**Q.** What about the “Ratio to untreated, replicate 01” value (Jurkat cells; protein AACS (Q86V21)) of the same compound?
**A.** 0.9811

**Q.** What about the “Ratio to untreated, replicate 02” value (Jurkat cells; protein AACS (Q86V21)) of the same compound?
**A.** 0.9735

**Q.** What about the “Ratio to untreated, replicate 03” value (Jurkat cells; protein AACS (Q86V21)) of the same compound?
**A.** 0.9785

**Q.** And the “Log2(ratio) compound/UT” value (Jurkat cells; [2])?
**A.** 0.05616

**Q.** What about the “Ratio to untreated, replicate 01” value (Jurkat cells; [2]) of the same compound?
**A.** 1.033

**Q.** And the “Ratio to untreated, replicate 02” value (Jurkat cells; [2])?
**A.** 1.076

**Q.** What about the “Ratio to untreated, replicate 03” value (Jurkat cells; [2]) of the same compound?
**A.** 0.9809

**Q.** `O=C1CCC(N2C(=O)c3ccc(C(F)(F)F)cc3C2=O)C(=O)N1` (centres unmarked) [Compound 18] was tested. Which Dmax ([1]; 18 h, Fig 2B) did it give?
**A.** 91%

**Q.** How did the Dmax ([1]; 18 h, Fig 2B) turn out when `Cc1ccccc1CNc1cccc2c1C(=O)N(C1CCC(=O)NC1=O)C2=O` (centres unmarked) [Compound 28] was run?
**A.** 94%

**Q.** Which Dmax ([1]; 18 h, Fig 2B) does the source give for `CCNc1cccc2c1C(=O)N(C1CCC(=O)NC1=O)C2=O` (centres unmarked) [Compound 24] here?
**A.** 96%

**Q.** Which Dmax ([1]; 18 h, Fig 2B) does the source give for `O=C1CCC(N2C(=O)c3ccc(F)cc3C2=O)C(=O)N1` (centres unmarked) [Compound 9] here?
**A.** 89%

**Q.** For `O=C1CCC(N2C(=O)c3ccc(-c4ccccc4)cc3C2=O)C(=O)N1` (centres unmarked) [Compound 20], which Dmax ([1]; 18 h, Fig 2B) is on record?
**A.** 66%

**Q.** For `CN(C)c1ccc2c(c1)C(=O)N(C1CCC(=O)NC1=O)C2=O` (centres unmarked) [Compound 21], which Dmax ([1]; 18 h, Fig 2B) is on record?
**A.** 86%

**Q.** How did the Dmax ([1]; 18 h, Fig 2B) turn out when `O=C1CCC(N2C(=O)c3cccc(NCc4cccnc4)c3C2=O)C(=O)N1` (centres unmarked) [Compound 27] was run?
**A.** 93%

**Q.** For `O=C1CCC(N2C(=O)c3cccc(I)c3C2=O)C(=O)N1` (centres unmarked) [Compound 14], which Dmax ([1]; 18 h, Fig 2B) is on record?
**A.** 86%

**Q.** How did the Dmax ([1]; 18 h, Fig 2B) turn out when `Cc1cccc2c1C(=O)N(C1CCC(=O)NC1=O)C2=O` (centres unmarked) [Compound 16] was run?
**A.** 87%
